According to PubChem BioAssay AID2060512 (Molecular Pharmacology Branch, DTP, NCI, 2025):

Test system: 186277-243-T-J2-PDC complex spheroid viability
Assay: Anticancer human tumor 186277-243-T-J2-PDC patient-derived colon adenocarcinoma cell line growth inhibition [GQUAD]
Settings: for IC50: curve of first compound; for viability, T/C: stronger effect = lower value
How it was run: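 Viability of tumor cells grown as complex spheroids with endothelial and stromal cells, exposed to drug combinations. Top concentration at or near clinical Cmax (else 10 microM), diluted in half-log increments.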

[1] = second compound 0.0316 µM, first compound 0.0316 µM
[2] = second compound 0.0316 µM, first compound 0.1 µM
[3] = second compound 0.0316 µM, first compound 0.316 µM
[4] = second compound 0.0316 µM, first compound 1 µM
[5] = second compound 0.0316 µM, first compound 3.16 µM
[6] = second compound 0.0316 µM, first compound 10 µM
[7] = second compound 0.1 µM, first compound 0.0316 µM
[8] = second compound 0.1 µM, first compound 0.1 µM
[9] = second compound 0.1 µM, first compound 0.316 µM
[10] = second compound 0.1 µM, first compound 1 µM
[11] = second compound 0.1 µM, first compound 3.16 µM
[12] = second compound 0.1 µM, first compound 10 µM
[13] = second compound 0.316 µM, first compound 0.0316 µM
[14] = second compound 0.316 µM, first compound 0.1 µM
[15] = second compound 0.316 µM, first compound 0.316 µM
[16] = second compound 0.316 µM, first compound 1 µM
[17] = second compound 0.316 µM, first compound 3.16 µM
[18] = second compound 0.316 µM, first compound 10 µM
[19] = second compound 1 µM, first compound 0.0316 µM
[20] = second compound 1 µM, first compound 0.1 µM
[21] = second compound 1 µM, first compound 0.316 µM
[22] = second compound 1 µM, first compound 1 µM
[23] = second compound 1 µM, first compound 3.16 µM
[24] = second compound 1 µM, first compound 10 µM
[25] = second compound 3.16 µM, first compound 0.0316 µM
[26] = second compound 3.16 µM, first compound 0.1 µM
[27] = second compound 3.16 µM, first compound 0.316 µM
[28] = second compound 3.16 µM, first compound 1 µM
[29] = second compound 3.16 µM, first compound 3.16 µM
[30] = second compound 3.16 µM, first compound 10 µM
[31] = second compound 10 µM, first compound 0.0316 µM
[32] = second compound 10 µM, first compound 0.1 µM
[33] = second compound 10 µM, first compound 0.316 µM
[34] = second compound 10 µM, first compound 1 µM
[35] = second compound 10 µM, first compound 3.16 µM
[36] = second compound 10 µM, first compound 10 µM
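Throughout, for viability, T/C: 100% = DMSO vehicle control viability.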

## CC(C)n1c(=O)n(C)c2cnc3cc(F)c(-c4ccc(OCCCN5CCCCC5)nc4)cc3c21 + CN(C)c1ccc(Nc2c3ccc(NC(=O)CCN4CCCC4)cc3nc3cc(NC(=O)CCN4CCCC4)ccc23)cc1
Second compound 0.0316 µM
  IC50: > 10000 nM
Second compound 0.1 µM
  IC50: > 10000 nM
Second compound 0.316 µM
  IC50: > 10000 nM
Second compound 1 µM
  IC50: > 10000 nM
Second compound 3.16 µM
  IC50: > 10000 nM
Second compound 10 µM
  IC50: 6100 nM
[1]
  viability, T/C: 94.4%
[2]
  viability, T/C: 108%
[3]
  viability, T/C: 91.8%
[4]
  viability, T/C: 98.1%
[5]
  viability, T/C: 109%
[6]
  viability, T/C: 97.9%
[7]
  viability, T/C: 110%
[8]
  viability, T/C: 105%
[9]
  viability, T/C: 102%
[10]
  viability, T/C: 110%
[11]
  viability, T/C: 114%
[12]
  viability, T/C: 95.3%
[13]
  viability, T/C: 97.9%
[14]
  viability, T/C: 115%
[15]
  viability, T/C: 103%
[16]
  viability, T/C: 98.3%
[17]
  viability, T/C: 122%
[18]
  viability, T/C: 93.7%
[19]
  viability, T/C: 132%
[20]
  viability, T/C: 87%
[21]
  viability, T/C: 97.6%
[22]
  viability, T/C: 100%
[23]
  viability, T/C: 111%
[24]
  viability, T/C: 86.1%
[25]
  viability, T/C: 101%
[26]
  viability, T/C: 84.9%
[27]
  viability, T/C: 97.2%
[28]
  viability, T/C: 118%
[29]
  viability, T/C: 119%
[30]
  viability, T/C: 84.8%
[31]
  viability, T/C: 118%
[32]
  viability, T/C: 96.8%
[33]
  viability, T/C: 112%
[34]
  viability, T/C: 88.8%
[35]
  viability, T/C: 66.4%
[36]
  viability, T/C: 37.8%

## CC1COCCN1c1cc(-c2ccnn2C)c2ccnc(-c3ccn[nH]3)c2n1 (centres undefined) + CN(C)c1ccc(Nc2c3ccc(NC(=O)CCN4CCCC4)cc3nc3cc(NC(=O)CCN4CCCC4)ccc23)cc1
Second compound 0.0316 µM
  IC50: 51.5 nM
Second compound 0.1 µM
  IC50: 46.4 nM
Second compound 0.316 µM
  IC50: 50.9 nM
Second compound 1 µM
  IC50: < 31.6 nM
Second compound 3.16 µM
  IC50: 40.8 nM
Second compound 10 µM
  IC50: 32.5 nM
[1]
  viability, T/C: 77.7%
[2]
  viability, T/C: 12.4%
[3]
  viability, T/C: 6.8%
[4]
  viability, T/C: 5.06%
[5]
  viability, T/C: 4.62%
[6]
  viability, T/C: 5.21%
[7]
  viability, T/C: 68.3%
[8]
  viability, T/C: 13.6%
[9]
  viability, T/C: 6.89%
[10]
  viability, T/C: 4.08%
[11]
  viability, T/C: 5.19%
[12]
  viability, T/C: 5.02%
[13]
  viability, T/C: 76.5%
[14]
  viability, T/C: 12.4%
[15]
  viability, T/C: 5.74%
[16]
  viability, T/C: 4.54%
[17]
  viability, T/C: 5.22%
[18]
  viability, T/C: 5.43%
[19]
  viability, T/C: 49.3%
[20]
  viability, T/C: 12.6%
[21]
  viability, T/C: 6.08%
[22]
  viability, T/C: 4.26%
[23]
  viability, T/C: 5.15%
[24]
  viability, T/C: 4.9%
[25]
  viability, T/C: 60.6%
[26]
  viability, T/C: 13.1%
[27]
  viability, T/C: 6.06%
[28]
  viability, T/C: 4.8%
[29]
  viability, T/C: 4.59%
[30]
  viability, T/C: 4.41%
[31]
  viability, T/C: 51%
[32]
  viability, T/C: 12.1%
[33]
  viability, T/C: 5.91%
[34]
  viability, T/C: 4.1%
[35]
  viability, T/C: 4.19%
[36]
  viability, T/C: 4.01%
